One may read the inhibition as the share of the control response that was lost under treatment.

Test [1] deals with T1, His6P4H1 (Dictyostelium discoideum, UniProt Q86KR9). Put plainly: […]CO2-release assay with Skp1A. Format: biochemical. The conditions noted are these: 0.05 mM [1-14C]αKG, 5 µM Skp1A, 5 µM Fe(II), 1 mM ascorbate, pH 7.4, 29 °C, αKG antagonist.
Test [2] has as its target T1, His6P4H1. Put plainly: […]CO2-release assay with Skp1A. Type of test: biochemical. The conditions noted are these: read-out: % inhibition at 1 mM.

T1 sequence (Q86KR9 whole entry): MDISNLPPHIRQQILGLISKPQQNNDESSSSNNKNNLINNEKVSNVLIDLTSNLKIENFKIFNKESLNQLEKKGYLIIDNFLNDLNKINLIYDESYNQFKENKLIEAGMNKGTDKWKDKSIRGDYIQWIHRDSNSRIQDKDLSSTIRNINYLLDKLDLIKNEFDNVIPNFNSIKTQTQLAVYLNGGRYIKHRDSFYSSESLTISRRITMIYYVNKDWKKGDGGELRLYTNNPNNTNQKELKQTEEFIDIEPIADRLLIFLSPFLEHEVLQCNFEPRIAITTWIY

On to `COC(=O)CNC(=O)C(=O)OC` [DMOG], for which, on His6P4H1 [1] (EtOH carrier), the “% inhibition” value is “the αKG antagonists DMOG and PCA, and CoCl2 (Fig. 1D)”.
For `O=C(O)c1ccc(O)c(O)c1` [PCA], the “% inhibition” value at His6P4H1 [1] was “the αKG antagonists DMOG and PCA, and CoCl2 (Fig. 1D)”.
Consider `O=C(O)/C=C/C(=O)O` [fumarate], for which the inhibition at 1000 µM on His6P4H1 [2] lay within 50 to 70%.
Same read-out and setting: the same measure for `O=C(O)CC(=O)C(=O)O` [oxaloacetate]: 50 to 70%; for `O=C(O)CCC(=O)O` [succinate]: 50 to 70%.

(Values after paper PMC3192012 (Biochemistry, 2011).)
